According to patent US20210161997A1, “TREATING DISEASES VIA TARGETED MODULATION OF GENE SIGNALING NETWORKS” (Camp4 Therapeutics Corporation, priority 2018, published 2021):

Legend:
Format in all cases: cell-based
HMBS = test: RNA-seq of HMBS expression in compound-treated primary human hepatocytes
Procedure: Human hepatocytes were obtained from two donors from Massachusetts General Hospital, namely MGH54 and MGH63, and one donor from Lonza, namely HUM4111B. Cryopreserved hepatocytes were cultured in plating media for 16 hours, transferred to maintenance media for 4 hours. Cultured on serum-free media for 2 hours, then a compound was added. The hepatocytes were maintained on the serum-free media for 16 hours prior to gene expression analysis. Primary human hepatocytes were stored in the vapor phase of a liquid nitrogen freezer (about −130° C.).
Human hepatocytes cultured as described above were plated in 24-well format, adding 375,000 cells per well in a volume of 500 ul plating medium. Four hours before treatment, cells were washed with PBS and the medium was changed to either: fresh maintenance medium (complete) or modified maintenance medium.
Compound stocks were prepared at 1000× final concentration and added in a 2-step dilution to the medium to reduce risk of a compound precipitating out of solution when added to the cells, and to ensure reasonable pipetting volumes. […]
For mRNA isolation and library prep, the NEBNext Poly(A) mRNA Magnetic Isolation Module and Directional Prep kit was used. RNA isolated from cells above was quantified, and prepared in […] of each sample in 50 μl of nuclease-free water. […]

UGT1A1 = test: RNA-seq of UGT1A1 expression in compound-treated primary human hepatocytes
How it was run: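 Cryopreserved primary human hepatocytes from three donors were plated in 24-well format, then treated with compound diluted from 1000× stocks in serum-free maintenance medium for about 16–18 h. Poly(A) RNA-seq log2 fold change was computed against vehicle/pan-experiment controls. Significance required FPKM ≥1, log2FC ≥0.5 and q ≤0.05.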

FN1 = test: RNA-seq of FN1 expression in compound-treated primary human hepatocytes; conditions: perturbed vs unperturbed, significance FPKM ≥1, log 2(fold change) ≥0.5, q-value ≤0.05
How it was run: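 Cryopreserved primary human hepatocytes from three donors, plated at 375,000 cells/well, switched to complete or modified maintenance medium, then dosed with compound (stocks at 1000× final) for about 18 h. Poly(A) mRNA was sequenced directionally, mapped to GRCh38 with STAR, and gene-level abundance (counts, FPKM) estimated with RSEM against GENCODE 24.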

CN1CCN(c2nc(C3=C(c4c[nH]c5ccccc45)C(=O)NC3=O)c3ccccc3n2)CC1 [Sotrastaurin]
HMBS Fold Change (Log2) (HMBS): 0.78 Log2
UGT1A1 Fold Change (Log2) (UGT1A1): 0.88 Log2
FN1 Fold Change (Log2) (FN1): −0.81 Log2
